Laboratory results from patent publication US6677310B1, “Ring-expanded nucleosides and nucleotides” (Nabi, priority 1999, dated 2004).
Where two headings read alike, the source gives them in different places.

How the values were obtained:
TK-10 = experiment: SRB anti-cancer assay, Renal Cancer; format: cell-based, human; conditions: TK-10 (Renal Cancer), 48 h; for CC50: read-out: LC50 (the source's name)
MOLT-4 = experiment: SRB anti-cancer assay, Leukemia; format: cell-based, human; conditions: MOLT-4 (Leukemia), 48 h; for CC50: read-out: LC50 (the source's name)
K-562 = experiment: SRB anti-cancer assay, Leukemia; format: cell-based, human; conditions: K-562 (Leukemia), 48 h; for CC50: read-out: LC50 (the source's name)
HT29 = experiment: SRB anti-cancer assay, Colon Cancer; format: cell-based, human; conditions: 48 h; for CC50: read-out: LC50 (the source's name)
SK-MEL-2 = experiment: SRB anti-cancer assay, Melanoma; format: cell-based, human; conditions: SK-MEL-2 (Melanoma), 48 h
LOX IMVI = experiment: SRB anti-cancer assay, Melanoma; format: cell-based, human; conditions: 48 h; for CC50: read-out: LC50 (the source's name)
IGROV1 = experiment: SRB anti-cancer assay, Ovarian Cancer; format: cell-based, human; conditions: 48 h; for CC50: read-out: LC50 (the source's name)
SK-MEL-5 = experiment: SRB anti-cancer assay, Melanoma; format: cell-based, human; conditions: SK-MEL-5 (Melanoma), 48 h; for CC50: read-out: LC50 (the source's name)
HL-60(TB) = HL-60(TB) (Leukemia), 48 h
Procedure: Briefly, cell suspensions that were diluted according to the particular cell type and the expected target cell density (5000-40,000 cells per well based on cell growth characteristics) were added by pipette (100 μl) into 96-well microtiter plates. Inoculates were allowed a preincubation period of 24h at 37° C. for stabilization. Dilutions at twice the intended test concentrations of the test compounds were added at time zero in 100 μl aliquots to the microtiter plate wells. The plates were incubated for 48 h in 5% CO2 atmosphere and 100% humidity. The cells were assayed by using the sulforhodamine B assay (Rubinstein, L. V. et al. J. Natl. Cancer Inst. 82:1113-118, 1990; Skehan, P. et al., J. Natl. Cancer Inst. 82:1107-1112, 1990). The plates were read by a plate reader. The following parameters were calculated from the optical densities:
GI50, concentration of drug that causes 50% growth inhibition; where (T−T0)/(C−T0)×100=50

PC-3 = experiment: SRB anti-cancer assay, Prostate Cancer; format: cell-based, human; conditions: PC-3 (Prostate Cancer), 48 h
[1] = test system: Varicella Zoster virus (VZV); experiment: Antiviral test against VZV; format: cell-based
Procedure: (§1) These compounds were also tested for their effects on HIV (Weislow, O. , et al., J. Natl. Cancer Inst., 81:577-586, 1989), herpes simplex virus (HSV)-1, HSV-2, cytomegalovirus (CMV), Varicella Zoster virus (VZV) and Epstein-Barr virus (EBV) replication (National Institute of Allergy and Infectious Diseases (NIAID), NIH, Bethesda, Md.).

HIV = experiment: Antiviral test against HIV; format: cell-based
Procedure: as §1

[2] = test system: herpes simplex virus (HSV)-1; experiment: Antiviral test against HSV-1; format: cell-based
Procedure: as §1

BT-549 = experiment: SRB anti-cancer assay, Breast Cancer; format: cell-based, human; conditions: BT-549 (Breast Cancer), 48 h; for CC50: read-out: LC50 (the source's name)
Epstein-Barr virus (EBV) = experiment: Antiviral test against EBV; format: cell-based
Procedure: as §1

RXF 393 = experiment: SRB anti-cancer assay, Renal Cancer; format: cell-based, human; conditions: RXF 393 (Renal Cancer), 48 h; for CC50: read-out: LC50 (the source's name)
HSV-2 = experiment: Antiviral test against HSV-2; format: cell-based
Procedure: as §1

2.2.15 cells = experiment: Toxicity in confluent 2.2.15 cells (neutral red dye uptake); format: cell-based, human
Procedure: Anti-HBV activity and the toxicity against confluent 2.2.15 cells were determined by the previously described procedure (Korba, B. E., et al. Antivir. Res., 19:55-70, 1992; Korba, B. E., et al. Antivir. Res., 15:217-228, 1991). Briefly, confluent cultures of HBV transfected 2.2.15 cells were maintained on either 96-well or 24-well flat-bottomed tissue culture plates in RPMI 1640 medium with 2% fetal bovine serum (FBS). The cells were treated with test compounds daily for nine consecutive days. […] Cellular toxicity against separate cultures of confluent 2.2.15 cells was measured after treatment with the compounds for nine days under identical culture conditions as those used for the antiviral assay (Korba, B. E., et al. Antivir. Res., 19:55-70, 1992). Uptake of neutral red dye by treated cells was compared with dye uptake by untreated control cells (Korba, B. E., et al. Antivir. Res., 19:55-70, 1992).

cytomegalovirus (CMV) = experiment: Antiviral test against CMV; format: cell-based
Procedure: as §1

[3] = confluent 2.2.15 cells, 9 days, neutral red dye uptake, read-out: CC50

## N=c1nc(N)c2ncn([C@@H]3O[C@H](COC(=O)c4ccccc4)[C@@H](OC(=O)c4ccccc4)[C@H]3OC(=O)c3ccccc3)c2c(N)n1 [4,8-Diamino-6H-6-imino-1(2′,3′,5′-tri-O-benzoyl-β-D-ribofuranosyl)imidazo[4,5-e][1,3]diazepine]
TK-10
  GI50: 21.3 µM
  TGI: 82.2 µM
  CC50: > 100 µM
MOLT-4
  GI50: 2.31 µM
  TGI: 7.08 µM
  CC50: > 100 µM
K-562
  GI50: 2.74 µM
  TGI: >100 µM
  CC50: > 100 µM
HT29
  GI50: 2.58 µM
  TGI: 10.3 µM
  CC50: 42.3 µM
SK-MEL-2
  GI50: 2.6 µM
  LC50: 26.2 µM
  TGI: 6.87 µM
LOX IMVI
  GI50: 3.01 µM
  TGI: >100 µM
  CC50: > 100 µM
IGROV1
  GI50: 5.13 µM
  TGI: 20.3 µM
  CC50: 66.7 µM
SK-MEL-5
  GI50: 1.36 µM
  TGI: 2.64 µM
  CC50: 5.16 µM
HL-60(TB)
  GI50: 4.01 µM
  TGI: 18.3 µM
HL-60(TB); read-out: LC50
  CC50: 83.7 µM
PC-3
  GI50: 4.46 µM
  TGI: 16.6 µM

## N=c1[nH]c(=O)c2ncn([C@@H]3O[C@H](CO)[C@@H](O)[C@H]3O)c2c(=O)[nH]1 [Compound 14-1, 6-Imino-6H-1-β-D-ribofuranosyl-4,5,7,8-tetrahydroimidazo[4,5-e][1,3]diazepine-4,8-dione]
[1]
  antiviral activity against VZV: no antiviral activity
HIV
  antiviral activity against HIV: no antiviral activity
[2]
  antiviral activity against HSV-1: no antiviral activity
BT-549
  GI50: > 100 µM
  TGI: >100 µM
  CC50: > 100 µM
MOLT-4
  GI50: > 100 µM
  TGI: >100 µM
  CC50: > 100 µM
K-562
  GI50: > 100 µM
  TGI: >100 µM
  CC50: > 100 µM
Epstein-Barr virus (EBV)
  antiviral activity against EBV: no antiviral activity
RXF 393
  TGI: >100 µM
  CC50: > 100 µM
HSV-2
  antiviral activity against HSV-2: no antiviral activity
2.2.15 cells; 2.2.15 cells, Example 13, read-out: CC50 (cellular toxicity)
  CC50: 2400 µM
2.2.15 cells; [3]
  CC50: 2430 µM
Cytomegalovirus (CMV)
  antiviral activity against CMV: no antiviral activity

## N=c1nc(N)c2ncn([C@@H]3O[C@H](CO)[C@@H](O)[C@H]3O)c2c(N)n1 [Compound 14-2, 4,8-Diamino-6H-6-imino-1-β-D-ribofuranosylimidazo[4,5-e][1,3]diazepine]
[1]
  antiviral activity against VZV: no antiviral activity
HIV
  antiviral activity against HIV: no antiviral activity
[2]
  antiviral activity against HSV-1: no antiviral activity
TK-10
  GI50: 15.1 µM
  TGI: 31.2 µM
  CC50: 64.6 µM
BT-549
  GI50: 15.6 µM
  TGI: 32.2 µM
  CC50: 66.4 µM
Epstein-Barr virus (EBV)
  antiviral activity against EBV: no antiviral activity
RXF 393
  GI50: 7.51 µM
  TGI: 25.6 µM
  CC50: 74.2 µM
HT29
  GI50: 10.4 µM
  TGI: 35.7 µM
  CC50: > 100 µM
SK-MEL-2
  GI50: 15.4 µM
  LC50: 76.9 µM
  TGI: 34.5 µM
LOX IMVI
  GI50: 7.16 µM
  TGI: 21.3 µM
  CC50: 51.2 µM
IGROV1
  GI50: 14 µM
  TGI: 30.5 µM
  CC50: 66.3 µM
SK-MEL-5
  GI50: 10.8 µM
  TGI: 23.5 µM
  CC50: 50.9 µM
HSV-2
  antiviral activity against HSV-2: no antiviral activity
2.2.15 cells; [3]
  CC50: 501 µM
PC-3
  GI50: 16.6 µM
  TGI: 44.5 µM
PC-3; read-out: LC50 (the source's name)
  CC50: > 100 µM
Cytomegalovirus (CMV)
  antiviral activity against CMV: no antiviral activity
